Results taken from patent US12102709B2, “Anti-obesity agent, anti-dementia agent, deodorant, anti-aging agent, anti-glycation agent, anti-type I allergy agent, hypotensive agent, flavor improving agent, muscle enhancing agent, and bone metabolism improving agent” (Mitsui Sugar Co., Ltd., priority 2018, dated 2024).

Tested on: C2C12 cells
Experiment: Myotube cell differentiation promotion test (Fusion index)
Assay type: cell-based, mouse
Details: 0.5 μM LDN-193189 with DMSO; 3 days; Comparative Example i2-2 55.1 ± 0.09
Experimental: (Cells) • Mouse Myoblasts C2C12 Cells (ATCC, CRL-1772) (Culture Mediums) • Growth culture medium composition: DMEM culture medium, 10% FBS, antibiotics added • Differentiation culture medium composition: DMEM culture medium, 0.5% FBS, antibiotics added C2C12 cells were cultivated using a growth culture medium in a T-75 flask (75 cm^2 U-shaped canted neck cell culture flask, commercially available from Corning Co., Ltd.). The T-75 flask was put into a CO2 incubator (5% CO2, 37° C., wet) and the C2C12 cells were cultured. The culture medium was replaced every other day, and when an 80% confluence was reached, the cells were collected and used for the test. Here, in the following test, regarding a well plate for culturing C2C12 cells, a plate coated with gelatin according to the following coating method was used. Pre-cultured cells were seeded in a 96-well plate for fluorescence observation at 4×10^4 cells/0.1 mL/well using a growth culture medium. The well plate was cultured in a CO2 incubator (5% CO2, 37° C.) for 2 days. […] After the culture medium was replaced, culturing was performed for 3 days, and after fixing, immunostaining with anti-myosin heavy chain (MHC) antibodies was performed. […] A total number of Hoechst positive nuclei and the number of MHC-positive nuclei were measured, and the Fusion index (% of MHC+nuclei) was calculated according to the following formula. […]

SMILES: c1ccc2c(-c3cnn4cc(-c5ccc(N6CCNCC6)cc5)cnc34)ccnc2c1 [Positive Control i2, 4-(6-(4-(piperazine-1-yl)phenyl)pyrazolo[1,5-a]pyrimidin-3-yl)quinoline]
- Fusion index (% of MHC + nuclei): 63.7 ± 0.88 %
